Laboratory results taken from patent publication US20120100073A1, “PET RADIOTRACERS FOR IMAGING FATTY ACID METABOLISM AND STORAGE” (WASHINGTON UNIVERSITY, priority 2009, published 2012).

How the values were obtained:
[1] = previous studies; rapid phase = oxidation, slow phase = storage; cited from earlier work
β-oxidation = conditions: literature ref. 17, cited from earlier work
[2] = microPET imaging and myocardial time-activity curves (tracer kinetics) in a fed rat; format: in vivo
Procedure: Animal Preparation. All animal procedures are conducted in compliance with the guidelines for the care and use of research animals established by the Animal Studies Committee of Washington University. Animal preparation is performed as described previously.^24-26 Rats are housed in metabolism cages and anesthetized by inhalation of […] isoflurane administered via an induction chamber. Anesthesia can be maintained throughout the imaging session by delivering 1%-1.5% isoflurane via a custom-designed nose cone. Venous access is via the right jugular vein. Body temperature can be maintained using a circulating water blanket and a heat lamp. Heart and respiration rates can be monitored throughout the process.
PET Acquisition. The animals can be secured in a custom-designed acrylic restraining device and placed inside the field of view of the small-animal imaging PET scanner. Imaging acquisition starts Ss after a bolus injection of tracer via the right jugular catheter. The imaging protocol consists of dynamic acquisition of microPET images of ^11C-palmitate (5-7mCI) followed by ^18F-FAA or by ^18F-VLDL (5-7mCi) alone. Dynamic mage acquisition during ^11C-palmitate and either ^18F-FAA or ^18F-FAA-VLDL can be 30 and 60 min, respectively. The total time of the imaging session can be ˜3 hrs. Three whole-blood arterial samples are collected throughout the study to measure whole blood glucose (5 μL), free fatty acid (20 μL), and insulin (5 μL) levels to confirm the metabolic state of the animals,
Image Processing/Analysis. Dynamic images can be reconstructed using filtered backprojection with a 2.5 zoom on the heart and 40 frames per imaging session. The input function is reconstructed by applying the hybrid image-blood-sampling algorithm as described previously.^25 A myocardial region of interest is placed to generate a myocardial time-activity curve (TAC). The ^18F-FAA and ^18F-FAA-VLDL blood and myocardial TACs can be compared with the ^11C-palmitate TACs for both defiing characteristics (e.g., height and shape) as well as similar kinetics based exponential curve-fitting algorithms. […]

## O=C(O)CCCCCCCCCCCCCCc1ccc(I)cc1 [^123I-lPPA, 15-(p-iodophenyl)-pentadecanoic acid]
[1]
  washout kinetics from heart: biphasic washout kinetics from heart

## O=C(O)CCSCCCCCCCCCCCC[18F] [FTP, ^18F-fluoro-thia-palmitate]
β-oxidation; normal oxygenation and hypoxic conditions
  deposition versus β-oxidation: proportional to β-oxidation under normal oxygenation and hypoxic conditions

## CCCCCCCCCCCCCCC[11C](=O)O [^11C-palmitate]
[1]
  washout kinetics from heart: biphasic washout kinetics from heart
[2]; blood and myocardial TACs, fed rat
  myocardial tracer uptake and washout pattern: significant tracer uptake with rapid bi-phasic washout
[2]; blood and myocardium, up to 60 mins post-tracer injection
  tracer clearance late after injection: tracer increased in both, blood and myocardium, 25 mins post tracer injection

## O=C(O)CCCCCCCCCCCCCCc1ccc(OCC[18F])cc1 [^18F-FAA]
[2]; rat, in vivo
  tracer clearance late after injection: still prevalent at 60 mins post-tracer injection

## CCCC([18F])CCCCCCCSCCCCC(=O)O (racemic) [FTHA, 14-(R,S)-^18F-fluoro-6-thiaheptadecanoic acid]
β-oxidation
  uptake and retention versus inhibition of β-oxidation by hypoxia: insensitive to the inhibition of β-oxidation by hypoxia
